Results published in US10669287B2, “Curcumin-boron complex and pharmaceutical containing same” (JAPAN SCIENCE AND TECHNOLOGY AGENCY, priority 2016, dated 2020).

Columns and labels:
PC 12 cells [1] = assay type: cell-based
Description: Rat pheochromocytoma PC 12 cells were suspended with DMEM containing 5% horse serum and 10% fetal bovine serum, seeded in a poly-D-lysine-coated 96-well plate at a concentration of 10,000 cells per well, and incubated in a 5% carbon dioxide atmosphere at 37° C. for 3 days. After the solvent was removed, the cells were washed with 150 μL of serum-free DMEM, and DMEM (75 μL) containing 0.1% horse serum was added thereto. Thereafter, the 96-well plate was incubated in a 5% carbon dioxide atmosphere at 37° C. for 1 day for use in oxygenation reaction. In oxygenation reaction, the compound E (100 μM dimethyl sulfoxide solution) was added to a phosphate buffer saline containing Aβ (aggregated in advance for 3 hours, 40 μM) and 25 μL of the above cell solution (final concentration of Aβ: 10 μM, final concentration of compound E: 1 μM). The mixture was irradiated with an LED (wavelength: 780 nm) at a distance of approximately 5 cm at 37° C. for 5 minutes. The cells were incubated in a 5% carbon dioxide atmosphere at 37° C. for 48 hours. The cell viability was measured by using the Cell Count Reagent SF (NACALAI TESQUE, INC., Kyoto, Japan) with WST-8 (2-(2-methoxy-4-nitrophenyl)-3-(4-nitrophenyl)-5-(2,4-disulfophenyl)-2H-tetrazolium).
b: LC50 (dark) indicates the toxicity of a compound itself, and LC50 (light) indicates the phototoxicity of a compound. The PC 12 cells were placed in dark or subjected to photocatalytic treatment under light irradiation (wavelength: 660 nm), and incubated at 37° C. for 5 minutes, and then in a 5% carbon dioxide atmosphere at 37° C. for 48 hours, for which the cell viability was analyzed (n=5, mean±SEM).
b: The PC 12 cells were treated together with a photocatalyst (1 μM) at 37° C. for 5 minutes in dark or under light irradiation (wavelength: 780 nm), and thereafter the cell viability was analyzed (n=3, mean±SEM).

PC 12 cells [2] = assay: Action on cells through selective oxygenation of Aβ1-42, WST-8 cell viability, Test Example 3; assay type: cell-based, rat; conditions: Aβ 10 μM, compound E 1 or 3 μM, 48 hours
Description: A phosphate buffer saline (pH 7.4) containing Aβ (40 μM) was incubated at 37° C. for 3 hours. Subsequently, the compound E was added thereto (4 or 12 μM). A culture medium for rat adrenal medulla-derived pheochromocytoma PC 12 cells (purchased from RIKEN, Japan) seeded on a poly-D-lysine-coated 96-well plate was replaced with 75 μL of a Dulbecco's modified Eagle's medium containing 0.1% horse serum, and the culture was incubated in a 5% CO2 atmosphere at 37° C. for 1 day, and 25 μL of the phosphate buffer saline (pH 7.4) containing Aβ and the compound E was then added thereto (final volume: 100 μL, final concentration of Aβ: 10 μM, final concentration of compound E: 1 or 3 μM). […] Finally, the Cell Count Reagent SF (10 μL: purchased from NACALAI TESQUE, INC.) containing WST-8 was added, and the culture was incubated in a 5% CO2 atmosphere at 37° C. for 3 hours, and thereafter the cell viability was determined from the absorbance at 450 nm (reference wavelength: 655 nm).
From the results shown in FIG. 4, an attempt was made to examine whether the toxicity of Aβ1-42 can be reduced through oxygenation of the Aβ1-42 in the presence of cells. […] The cell viability was determined through measurement of the absorption by WST-8 at 450 nm by using a plate reader.

[3] = Stability of catalyst in neutral phosphate buffer without or under light irradiation (HPLC), Test Example 5; assay type: physicochemical; conditions: under light irradiation (660 nm)
Description: A neutral phosphate buffer containing a catalyst was incubated without light irradiation or under light irradiation (660 nm), and thereafter ethanol containing benzyl alcohol (as an internal standard) was added thereto, and analysis was performed by using HPLC.

[4] = Conversion of N-benzoyl-Met under different glycerol concentrations, Test Example 8; conditions: compound 2 μM, N-benzoyl-Met 2 mM, glycerol-methanol 0, 10, 30, or 50% glycerol, 780 nm, room temperature
Description: To a glycerol-methanol mixed solvent (glycerol: 0, 10, 30, or 50%), furfuryl alcohol or N-benzoyl-Met (2 mM in each case) and the compound E (2 μM) were added, and the mixture was subjected to light irradiation (wavelength: 780 nm) at room temperature, and the concentration of furfuryl alcohol or N-benzoyl-Met was quantified by using a UV absorptiometer with LC/MS 10 minutes, 20 minutes, and 30 minutes after the initiation of light irradiation.

Aβ1-42 = target: T1, Aβ1-42 (Homo sapiens, UniProt P05067); assay: In vitro oxygenation experiment using Aβ1-42 as a substrate (MALDI-TOF MS), Test Example 1; assay type: biochemical; conditions: test compound 1 μM, Aβ1-42 10 μM, LED irradiation at both 660 nm and 730 nm, 37° C.
T1 construct: phosphate buffer (pH 7.4)/cell culture solution (containing 0.1% horse serum) (1:3) containing Aβ1-42 (10 μM)
Description: An in vitro oxygenation experiment using Aβ1-42 as a substrate was conducted to confirm that each of the inventive compounds actually have Aβ oxygenation activity. A test compound (1 μM in each case) was added to phosphate buffer (pH 7.4)/cell culture solution (containing 0.1% horse serum) (1:3) containing Aβ1-42 (10 μM), and incubated under LED irradiation (wavelength: 660 nm, 730 nm) at 37° C., and then the reaction was tracked by using a mass spectrometer (MALDI-TOF MS). The native Aβ1-42 and the Na^+ adduct were mainly observed before light irradiation. After light irradiation, an ion peak indicating the presence of the oxygenated form was observed over time (FIG. 1, FIG. 2).

T1 sequence (P05067 672-713): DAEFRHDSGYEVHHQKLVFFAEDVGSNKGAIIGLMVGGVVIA

O=C(O)CCCCCN1CCCc2cc(/C=C/C3=[O+][B-](F)(C(F)(F)C(F)(F)F)OC(/C=C/c4cc5c6c(c4)CCCN6CCC5)=C3Br)ccc21 (stereo not drawn) [Compound E]
CC50 (PC 12 cells [1]): > 10 µM
cell viability with Aβ1-42 and compound E (PC 12 cells [2]; under LED irradiation 660 nm, 10 mW, 5 minutes): the cell viability was significantly improved
cell viability with Aβ1-42 and compound E (PC 12 cells [2]; without light irradiation): significant cell death
stability of catalyst (ranking) [3]: stability was higher
oxygenation of N-benzoyl-Met [4]: accelerated as the viscosity of the solvent was higher
oxygenation of Aβ1-42 under light irradiation (Aβ1-42): oxygenation of the Aβ proceeded
